According to patent US20150105252A1, “SUBSTITUTED PYRAZOLES AS HERBICIDES” (E I DU PONT DE NEMOURS AND COMPANY, priority 2013, published 2015):

What was measured:
foxtail, green [1] = experiment: Test D preemergence; format: in vivo, Setaria viridis; details: Preemergence, scale 0 to 100
From the text: (§1) Seeds of plant species selected from bluegrass (annual bluegrass, Poa annua), blackgrass (Alopecurus myosuroides), canarygrass (littleseed canarygrass, Phalaris minor), chickweed (common chickweed, Stellaria media), galium (catchweed bedstraw, Galium aparine), bromegrass, downy (downy bromegrass, Bromus tectorum), field poppy (Papaver rhoeas), field violet (Viola arvensis), foxtail, green (green foxtail, Setaria viridis), deadnettle (henbit deadnettle, Lamium amplexicaule), ryegrass, Italian (Italian ryegrass, Lolium multiflorum), kochia (Kochia scoparia), lambsquarters (Chenopodium album), oilseed rape (Brassica napus), pigweed (redroot pigweed, Amaranthus retroflexus), chamomile (scentless chamomile, Matricaria inodora), speedwell (bird's-eye speedwell, Veronica persica), barley, spring (spring barley, Hordeum vulgare), wheat, spring (spring wheat, Triticum aestivum), buckwheat, wild (wild buckwheat, Polygonum convolvulus), mustard, wild (wild mustard, Sinapis arvensis), oat, wild (wild oat, Avena fatua), radish, wild (wild radish, Raphanus raphanistrum), windgrass (Apera spica-venti), Russian thistle (Salsola kali), barley, winter (winter barley, Hordeum vulgare), and wheat, winter (winter wheat, Triticum aestivum) were planted into a silt loam soil and treated preemergence with test chemicals formulated in a non-phytotoxic solvent mixture which included a surfactant.
(§2) At the same time, these species were planted in pots containing Redi-Earth® planting medium (Scotts Company, 14111 Scottslawn Road, Marysville, Ohio 43041) comprising spaghnum peat moss, vermiculite, wetting agent and starter nutrients and treated with postemergence applications of the test chemicals formulated in the same manner. Plants ranged in height from 2 to 18 cm (1- to 4-leaf stage). Treated plants and controls were maintained in a controlled growth environment for 14 to 21 days after which time all species were compared to controls and visually evaluated. Plant response ratings, summarized in Table D, are based on a scale of 0 to 100 where 0 is no effect and 100 is complete control. A dash (-) response means no test result.

oilseed rape = experiment: Test D preemergence; format: in vivo, Brassica napus; details: Preemergence, scale 0 to 100
From the text: as §1, §2

chamomile [2] = experiment: Test D postemergence; format: in vivo, Matricaria inodora; details: scale 0 to 100
From the text: as §1, §2

field violet = experiment: Test D postemergence; format: in vivo, Viola arvensis; details: scale 0 to 100
From the text: as §1, §2

oat, wild = experiment: Test D preemergence; format: in vivo, Avena fatua; details: Preemergence, scale 0 to 100
From the text: as §1, §2

kochia = experiment: Test D preemergence; format: in vivo, Kochia scoparia; details: Preemergence, scale 0 to 100
From the text: as §1, §2

galium [3] = experiment: Test D postemergence; format: in vivo, Galium aparine; details: scale 0 to 100
From the text: as §1, §2

barley, winter = experiment: Test D postemergence; format: in vivo, Hordeum vulgare; details: scale 0 to 100
From the text: as §1, §2

barley, spring = experiment: Test D postemergence; format: in vivo, Hordeum vulgare; details: scale 0 to 100
From the text: as §1, §2

blackgrass = experiment: Test D preemergence; format: in vivo, Alopecurus myosuroides; details: Preemergence, scale 0 to 100
From the text: as §1, §2

chamomile [4] = experiment: Test D preemergence; format: in vivo, Matricaria inodora; details: Preemergence, scale 0 to 100
From the text: as §1, §2

wheat, winter = experiment: Test D preemergence; format: in vivo, Triticum aestivum; details: Preemergence, scale 0 to 100
From the text: as §1, §2

wheat, spring = experiment: Test D preemergence; format: in vivo, Triticum aestivum; details: Preemergence, scale 0 to 100
From the text: as §1, §2

speedwell = experiment: Test D postemergence; format: in vivo, Veronica persica; details: scale 0 to 100
From the text: as §1, §2

galium [5] = experiment: Test D preemergence; format: in vivo, Galium aparine; details: Preemergence, scale 0 to 100
From the text: as §1, §2

bluegrass = experiment: Test D preemergence; format: in vivo, Poa annua; details: Preemergence, scale 0 to 100
From the text: as §1, §2

mustard, wild = experiment: Test D preemergence; format: in vivo, Sinapis arvensis; details: Preemergence, scale 0 to 100
From the text: as §1, §2

canarygrass = experiment: Test D postemergence; format: in vivo, Phalaris minor; details: scale 0 to 100
From the text: as §1, §2

foxtail, green [6] = experiment: Test D postemergence; format: in vivo, Setaria viridis; details: scale 0 to 100
From the text: as §1, §2

lambsquarters = experiment: Test D postemergence; format: in vivo, Chenopodium album; details: scale 0 to 100
From the text: as §1, §2

## CCc1cc(C(=O)NCC(F)(F)F)nn1Cc1ccnc(SC(F)(F)F)c1 [Compound 214]
foxtail, green [1]; 62 g ai/ha
  Plant response rating, Foxtail, Green: 100
foxtail, green [1]; 125 g ai/ha
  Plant response rating, Foxtail, Green: 100
foxtail, green [1]; 250 g ai/ha
  Plant response rating, Foxtail, Green: 100
Oilseed rape; 62 g ai/ha
  Plant response rating, Oilseed Rape: 65
Oilseed rape; 125 g ai/ha
  Plant response rating, Oilseed Rape: 100
Oilseed rape; 250 g ai/ha
  Plant response rating, Oilseed Rape: 100
Chamomile [2]; Postemergence, 31 g ai/ha
  Chamomile plant response rating: 40
Chamomile [2]; Postemergence, 125 g ai/ha
  Chamomile plant response rating: 60
Chamomile [2]; Postemergence, 250 g ai/ha
  Chamomile plant response rating: 70
Chamomile [2]; postemergence, 62 g ai/ha
  Chamomile plant response rating: 40
Field violet; Postemergence, 31 g ai/ha
  Field Violet plant response rating: 100
Field violet; Postemergence, 125 g ai/ha
  Field Violet plant response rating: 100
Field violet; Postemergence, 250 g ai/ha
  Field Violet plant response rating: 100
Field violet; postemergence, 62 g ai/ha
  Field Violet plant response rating: 100
oat, wild; 62 g ai/ha
  Plant response rating, Oat, Wild: 20
oat, wild; 125 g ai/ha
  Plant response rating, Oat, Wild: 70
oat, wild; 250 g ai/ha
  Plant response rating, Oat, Wild: 95
kochia; 62 g ai/ha
  Plant response rating, Kochia: 70
kochia; 125 g ai/ha
  Plant response rating, Kochia: 100
kochia; 250 g ai/ha
  Plant response rating, Kochia: 100
Galium [3]; Postemergence, 31 g ai/ha
  Galium plant response rating: 80
Galium [3]; Postemergence, 125 g ai/ha
  Galium plant response rating: 80
Galium [3]; Postemergence, 250 g ai/ha
  Galium plant response rating: 100
Galium [3]; postemergence, 62 g ai/ha
  Galium plant response rating: 80
barley, winter; Postemergence, 31 g ai/ha
  Barley, Winter plant response rating: 20
barley, winter; Postemergence, 125 g ai/ha
  Barley, Winter plant response rating: 30
barley, winter; Postemergence, 250 g ai/ha
  Barley, Winter plant response rating: 35
barley, winter; postemergence, 62 g ai/ha
  Barley, Winter plant response rating: 20
barley, spring; Postemergence, 31 g ai/ha
  Barley, Spring plant response rating: 15
barley, spring; Postemergence, 125 g ai/ha
  Barley, Spring plant response rating: 20
barley, spring; Postemergence, 250 g ai/ha
  Barley, Spring plant response rating: 40
barley, spring; postemergence, 62 g ai/ha
  Barley, Spring plant response rating: 15
blackgrass; 31 g ai/ha
  Plant response rating, Blackgrass: 35
blackgrass; 62 g ai/ha
  Plant response rating, Blackgrass: 75
blackgrass; 125 g ai/ha
  Plant response rating, Blackgrass: 90
blackgrass; 250 g ai/ha
  Plant response rating, Blackgrass: 100
Chamomile [4]; 31 g ai/ha
  Plant response rating, Chamomile: 50
Chamomile [4]; 62 g ai/ha
  Plant response rating, Chamomile: 100
Chamomile [4]; 125 g ai/ha
  Plant response rating, Chamomile: 100
Chamomile [4]; 250 g ai/ha
  Plant response rating, Chamomile: 100
wheat, winter; 62 g ai/ha
  Plant response rating, Wheat, Winter: 15
wheat, winter; 125 g ai/ha
  Plant response rating, Wheat, Winter: 55
wheat, winter; 250 g ai/ha
  Plant response rating, Wheat, Winter: 75
wheat, spring; 62 g ai/ha
  Plant response rating, Wheat, Spring: 10
wheat, spring; 125 g ai/ha
  Plant response rating, Wheat, Spring: 40
wheat, spring; 250 g ai/ha
  Plant response rating, Wheat, Spring: 75
speedwell; Postemergence, 31 g ai/ha
  Speedwell plant response rating: 90
speedwell; Postemergence, 125 g ai/ha
  Speedwell plant response rating: 95
speedwell; Postemergence, 250 g ai/ha
  Speedwell plant response rating: 100
speedwell; postemergence, 62 g ai/ha
  Speedwell plant response rating: 90
Galium [5]; 62 g ai/ha
  Plant response rating, Galium: 85
Galium [5]; 125 g ai/ha
  Plant response rating, Galium: 100
Galium [5]; 250 g ai/ha
  Plant response rating, Galium: 100
bluegrass; 31 g ai/ha
  Plant response rating, Bluegrass: 40
bluegrass; 62 g ai/ha
  Plant response rating, Bluegrass: 65
bluegrass; 125 g ai/ha
  Plant response rating, Bluegrass: 85
bluegrass; 250 g ai/ha
  Plant response rating, Bluegrass: 100
mustard, wild; 62 g ai/ha
  Plant response rating, Mustard, Wild: 100
mustard, wild; 125 g ai/ha
  Plant response rating, Mustard, Wild: 100
mustard, wild; 250 g ai/ha
  Plant response rating, Mustard, Wild: 100
canarygrass; Postemergence, 31 g ai/ha
  Canarygrass plant response rating: 15
canarygrass; Postemergence, 125 g ai/ha
  Canarygrass plant response rating: 15
canarygrass; Postemergence, 250 g ai/ha
  Canarygrass plant response rating: 30
canarygrass; postemergence, 62 g ai/ha
  Canarygrass plant response rating: 15
foxtail, green [6]; Postemergence, 31 g ai/ha
  Foxtail, Green plant response rating: 15
foxtail, green [6]; Postemergence, 125 g ai/ha
  Foxtail, Green plant response rating: 35
foxtail, green [6]; Postemergence, 250 g ai/ha
  Foxtail, Green plant response rating: 60
foxtail, green [6]; postemergence, 62 g ai/ha
  Foxtail, Green plant response rating: 15
lambsquarters; Postemergence, 31 g ai/ha
  Lambsquarters plant response rating: 65
lambsquarters; Postemergence, 125 g ai/ha
  Lambsquarters plant response rating: 80
lambsquarters; Postemergence, 250 g ai/ha
  Lambsquarters plant response rating: 90
lambsquarters; postemergence, 62 g ai/ha
  Lambsquarters plant response rating: 65
